In PMC7488503 (Acta Pharmaceutica Sinica. B, 2020):

Assays:
[1] = target: VEGFR2 (Homo sapiens, UniProt P35968); experiment: Z′-LYTE kinase inhibition assay
[2] = target: FGFR1 (Homo sapiens, UniProt P11362); experiment: Z′-LYTE kinase inhibition assay
[3] = target: PDGFRβ (Homo sapiens, UniProt P09619); experiment: Z′-LYTE kinase inhibition assay
[4] = tested on: A549 lung cancer xenograft; experiment: A549 lung cancer subcutaneous xenograft model; assay type: in vivo, Balb/c nude mice
[5] = tested on: NCI-H520 lung cancer xenograft; experiment: NCI-H520 lung cancer subcutaneous xenograft model; assay type: in vivo, Balb/c nude mice
[6] = tested on: HBVPs; experiment: PDGF-BB-induced HBVPs proliferation; assay type: cell-based; details: Homo sapiens, 48 h, read-out: IC50 HBVPs
[7] = tested on: HUVECs; experiment: VEGF-induced HUVECs proliferation; assay type: cell-based; details: Homo sapiens, HUVEC, 72 h, read-out: IC50 HUVECs

PDGFRβ, sequence (P09619 33-1106): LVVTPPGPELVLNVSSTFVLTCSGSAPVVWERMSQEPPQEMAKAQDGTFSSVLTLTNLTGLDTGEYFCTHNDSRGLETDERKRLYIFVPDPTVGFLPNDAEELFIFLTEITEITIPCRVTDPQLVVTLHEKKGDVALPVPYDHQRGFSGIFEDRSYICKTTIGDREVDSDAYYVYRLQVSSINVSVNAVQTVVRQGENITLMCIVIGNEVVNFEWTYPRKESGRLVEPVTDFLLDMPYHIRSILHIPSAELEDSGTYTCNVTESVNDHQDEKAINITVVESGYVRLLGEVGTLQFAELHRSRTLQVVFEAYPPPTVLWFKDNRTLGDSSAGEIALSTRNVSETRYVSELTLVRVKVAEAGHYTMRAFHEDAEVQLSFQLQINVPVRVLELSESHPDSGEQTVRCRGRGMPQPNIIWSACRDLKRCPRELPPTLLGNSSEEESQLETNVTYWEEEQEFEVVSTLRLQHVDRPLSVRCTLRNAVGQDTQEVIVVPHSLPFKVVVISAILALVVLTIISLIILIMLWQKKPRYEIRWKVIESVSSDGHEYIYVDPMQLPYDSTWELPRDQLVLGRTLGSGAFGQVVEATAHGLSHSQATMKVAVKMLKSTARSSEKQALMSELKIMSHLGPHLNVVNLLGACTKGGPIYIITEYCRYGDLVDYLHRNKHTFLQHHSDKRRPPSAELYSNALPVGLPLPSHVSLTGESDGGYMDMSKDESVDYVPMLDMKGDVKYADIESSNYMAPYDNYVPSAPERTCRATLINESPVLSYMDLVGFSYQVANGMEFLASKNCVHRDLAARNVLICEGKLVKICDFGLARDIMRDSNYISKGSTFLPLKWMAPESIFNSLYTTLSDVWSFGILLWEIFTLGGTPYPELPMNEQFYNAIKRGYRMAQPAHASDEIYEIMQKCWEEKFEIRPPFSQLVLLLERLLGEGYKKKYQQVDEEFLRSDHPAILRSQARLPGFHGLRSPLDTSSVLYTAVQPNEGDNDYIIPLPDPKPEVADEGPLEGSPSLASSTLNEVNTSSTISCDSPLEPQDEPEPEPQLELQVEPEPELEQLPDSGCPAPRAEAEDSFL
VEGFR2, sequence (P35968 20-1356): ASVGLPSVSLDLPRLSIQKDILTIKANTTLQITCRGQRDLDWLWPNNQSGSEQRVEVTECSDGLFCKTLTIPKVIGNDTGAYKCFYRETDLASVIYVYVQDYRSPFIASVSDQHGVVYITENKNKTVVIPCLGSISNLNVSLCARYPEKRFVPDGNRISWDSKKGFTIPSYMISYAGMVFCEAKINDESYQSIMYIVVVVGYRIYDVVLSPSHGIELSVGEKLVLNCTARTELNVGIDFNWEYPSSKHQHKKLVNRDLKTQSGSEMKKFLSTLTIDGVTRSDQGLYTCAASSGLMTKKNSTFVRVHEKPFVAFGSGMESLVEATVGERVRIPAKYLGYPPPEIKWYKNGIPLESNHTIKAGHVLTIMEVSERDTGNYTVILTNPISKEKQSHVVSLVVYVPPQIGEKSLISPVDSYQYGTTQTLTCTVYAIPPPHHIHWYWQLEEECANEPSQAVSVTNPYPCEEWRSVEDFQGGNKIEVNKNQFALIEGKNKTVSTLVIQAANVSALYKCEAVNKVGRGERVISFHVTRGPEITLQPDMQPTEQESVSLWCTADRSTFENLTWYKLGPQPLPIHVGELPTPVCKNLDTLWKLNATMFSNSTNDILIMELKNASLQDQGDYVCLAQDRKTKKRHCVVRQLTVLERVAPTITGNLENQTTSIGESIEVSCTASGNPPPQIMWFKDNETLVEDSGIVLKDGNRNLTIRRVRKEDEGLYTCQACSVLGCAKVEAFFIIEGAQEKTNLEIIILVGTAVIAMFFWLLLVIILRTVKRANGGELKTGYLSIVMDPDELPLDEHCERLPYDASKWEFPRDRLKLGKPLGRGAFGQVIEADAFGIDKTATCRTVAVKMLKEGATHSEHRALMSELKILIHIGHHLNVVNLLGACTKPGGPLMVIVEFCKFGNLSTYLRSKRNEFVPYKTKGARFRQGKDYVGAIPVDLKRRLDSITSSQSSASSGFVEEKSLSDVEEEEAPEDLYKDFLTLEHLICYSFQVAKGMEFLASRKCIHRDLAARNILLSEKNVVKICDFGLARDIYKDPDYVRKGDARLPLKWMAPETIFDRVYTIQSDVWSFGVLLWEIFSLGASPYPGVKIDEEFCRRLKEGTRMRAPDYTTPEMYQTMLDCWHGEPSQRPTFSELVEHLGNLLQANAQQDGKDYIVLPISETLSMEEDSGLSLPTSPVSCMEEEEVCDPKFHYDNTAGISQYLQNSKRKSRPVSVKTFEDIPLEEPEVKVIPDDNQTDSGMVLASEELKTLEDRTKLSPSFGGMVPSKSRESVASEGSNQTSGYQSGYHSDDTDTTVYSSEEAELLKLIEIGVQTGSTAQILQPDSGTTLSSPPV
FGFR1, sequence (P11362 22-822): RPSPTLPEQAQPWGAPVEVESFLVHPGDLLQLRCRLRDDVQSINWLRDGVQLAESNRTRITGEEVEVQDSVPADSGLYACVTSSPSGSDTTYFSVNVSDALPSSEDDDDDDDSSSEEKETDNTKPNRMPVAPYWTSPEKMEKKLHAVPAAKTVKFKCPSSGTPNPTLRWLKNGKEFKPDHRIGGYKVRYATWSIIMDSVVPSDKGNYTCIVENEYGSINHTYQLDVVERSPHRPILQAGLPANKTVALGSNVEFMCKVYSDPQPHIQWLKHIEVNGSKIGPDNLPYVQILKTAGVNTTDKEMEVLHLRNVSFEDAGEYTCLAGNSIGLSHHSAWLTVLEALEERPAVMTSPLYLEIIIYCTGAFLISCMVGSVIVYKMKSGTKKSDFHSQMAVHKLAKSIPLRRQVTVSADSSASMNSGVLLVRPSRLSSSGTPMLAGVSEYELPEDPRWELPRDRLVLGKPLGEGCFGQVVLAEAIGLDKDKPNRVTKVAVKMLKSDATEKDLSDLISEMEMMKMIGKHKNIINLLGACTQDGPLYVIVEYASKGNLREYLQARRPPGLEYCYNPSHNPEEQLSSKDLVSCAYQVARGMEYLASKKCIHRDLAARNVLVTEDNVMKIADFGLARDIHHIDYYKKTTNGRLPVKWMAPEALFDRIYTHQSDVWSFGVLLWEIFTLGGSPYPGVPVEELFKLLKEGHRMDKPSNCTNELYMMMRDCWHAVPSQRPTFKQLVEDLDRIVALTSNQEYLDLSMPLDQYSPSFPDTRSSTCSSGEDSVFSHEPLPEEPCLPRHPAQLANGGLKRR

SMILES | IC50 [1] | IC50 [2] | IC50 [3] | T/C ([4]; 100 mg/kg p.o. QD, Day 21) | TGI ([4]; 100 mg/kg p.o. QD, Day 21) | Tumor volume at Day 21 ([4]; 100 mg/kg p.o. QD, mean ± SEM) | area of CD31 (tumor micro-vessel density, IHC) ([4]; 100 mg/kg, mean ± SEM, n = 3, control 3.38 ± 0.49) | T/C ([5]; 100 mg/kg p.o. QD, Day 21) | TGI ([5]; 100 mg/kg p.o. QD, Day 21) | Tumor volume at Day 21 ([5]; 100 mg/kg p.o. QD, mean ± SEM) | area of CD31 (tumor micro-vessel density, IHC) ([5]; 100 mg/kg, mean ± SEM, n = 3, control 4.96 ± 0.62) | IC50 [6] | IC50 [7]
O=C1NCOc2cc3nccc(Oc4ccc(NC(=S)NC5CC5)c(Cl)c4)c3cc21 [B3] | 0.227 µM | 0.777 µM | 0.41 µM | – | – | – | – | – | – | – | – | – | –
COc1cc2nccc(Oc3ccc(NC(N)=S)c(Cl)c3)c2cc1C(N)=O [C1] | 0.0327 µM | 0.436 µM | 0.0772 µM | – | – | – | – | – | – | – | – | – | –
COC(=O)c1ccc2c(c1)NC(=O)/C2=C(\Nc1ccc(N(C)C(=O)CN2CCN(C)CC2)cc1)c1ccccc1 [Nintedanib, reference compound] | – | – | – | 26% | 80% | 391 ± 43 mm^3 | 1.05 ± 0.33 | 45% | 62% | 585 ± 101 mm^3 | 1.99 ± 0.04 | 1.67 µM | 0.041 µM
